The values below come from US9453044.

For the data set the following is noted: amide bond, salicylaldehyde ester ligation, TFA, 2 steps.

Where two headings read alike, the source gives them in different places.

For `CC(C)C[C@@H]1NC(=O)CNC(=O)[C@H](CO)NC(=O)CNC(=O)[C@H](C)NC(=O)[C@H](Cc2ccccc2)NC(=O)CNC(=O)[C@H](Cc2ccc(O)cc2)NC1=O` [SGLYGFAG], where the note is “from H-Ser-Gly-Leu-Tyr-Gly-Phe-Ala-Gly-OPhCHO?, 24-membered ring”, the ring closure, yield after HPLC was 52%. As to `CC(C)C[C@@H]1NC(=O)CNC(=O)[C@H]([C@@H](C)O)NC(=O)CNC(=O)[C@H](C)NC(=O)[C@H](Cc2ccccc2)NC(=O)CNC(=O)[C@H](Cc2ccccc2)NC1=O` [TGLFGFAG], for the setting “from H-Thr-Gly-Leu-Phe-Gly-Phe-Ala-Gly-OPhCHO?, 24-membered ring”, the ring closure, yield after HPLC was 63%.

Compound `C[C@@H](O)[C@@H]1NC(=O)CNC(=O)[C@H](Cc2ccccc2)NC(=O)[C@H](Cc2ccccc2)NC(=O)CNC(=O)[C@H](Cc2ccccc2)NC(=O)[C@H](Cc2ccccc2)NC1=O` [TFFGFFG] showed a ring closure, yield after HPLC (from H-Thr-Phe-Phe-Gly-Phe-Phe-Gly-OPhCHO?, 21-membered ring) of 56%.

`CC(C)C[C@@H]1NC(=O)CNC(=O)[C@H](CO)NC(=O)CNC(=O)[C@H](C)NC(=O)[C@H](Cc2ccccc2)NC(=O)CNC(=O)[C@H](Cc2ccccc2)NC1=O` [SGLFGFAG] displayed a ring closure, yield after HPLC (from H-Ser-Gly-Leu-Phe-Gly-Phe-Ala-Gly-OPhCHO?, 24-membered ring) of 65%. Take `CC(C)C[C@@H]1NC(=O)[C@H](Cc2ccccc2)NC(=O)[C@H](CO)NC(=O)[C@H](C)NC(=O)[C@H](Cc2ccccc2)NC1=O` [SFLFA]: the ring closure, yield after HPLC (from H-Ser-Phe-Leu-Phe-Ala-OPhCHO?, 15-membered ring) is 35%. For the compound `CC(C)C[C@@H]1NC(=O)[C@H](Cc2ccccc2)NC(=O)[C@H](C)NC(=O)[C@H](CCCCN)NC(=O)CNC(=O)[C@H](CO)NC1=O` [SGKAFL], under “from H-Ser-Gly-Lys-Ala-Phe-Leu-OPhCHO?, 18-membered ring”, the ring closure, yield after HPLC was found to be 39%. Regarding `CC(C)C[C@@H]1NC(=O)[C@H](CO)NC(=O)[C@H](CC(C)C)NC(=O)[C@H](CO)NC1=O` [SLSL], the ring closure, yield after HPLC (from H-Ser-Leu-Ser-Leu-OPhCHO?, 12-membered ring) was found to be 20%.
